Legend:
Human LBAT = target: T1, Human LBAT (Homo sapiens, UniProt Q14973); test: LBAT assay, 3H-taurocholic acid uptake in human LBAT-overexpressing cells; format: cell-based; conditions: read-out: hLBAT IC50
T1 construct: expressed in transfected cells; kept under Geneticin selection
T1 sequence (Q14973 1-349): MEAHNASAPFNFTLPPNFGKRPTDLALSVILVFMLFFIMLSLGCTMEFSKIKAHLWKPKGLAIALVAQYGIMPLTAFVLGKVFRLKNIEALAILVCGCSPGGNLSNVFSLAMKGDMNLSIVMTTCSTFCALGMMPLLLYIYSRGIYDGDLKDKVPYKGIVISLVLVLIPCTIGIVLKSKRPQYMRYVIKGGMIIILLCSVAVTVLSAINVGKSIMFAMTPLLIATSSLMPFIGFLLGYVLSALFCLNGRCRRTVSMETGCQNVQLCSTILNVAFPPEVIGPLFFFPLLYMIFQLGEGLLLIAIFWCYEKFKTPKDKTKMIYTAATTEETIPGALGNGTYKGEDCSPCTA
Procedure: (§1) 20,000 cells (Human or Mouse LBAT-overexpressing cells) were seeded in 96-wells plate (Corning CLS3809) in 100 μL MEM-alpha medium (Gibco 12571-063) supplemented with 10% FBS (Gibco 10438026) containing Geneticin (Gibco 10131-027) (1 mg/mL) and incubated at 37° C. in 5% CO2 for 24 hours. After incubation, media was decanted from the wells and cells were washed two times with 300 μL of basal MEM-alpha medium (FBS-free). After decanting basal MEM-alpha medium each time, plates were tapped against paper towel to ensure maximum removal of residual media.
For human LBAT, incubation mix was prepared by adding test inhibitor dilutions (3-fold serial dilution in DMSO (Sigma D2650), 10 points) in MEM-alpha (without FBS) containing 0.3 μM 3H-taurocholic acid (ARC ART-1368) and 7.5 μM cold taurocholic acid (Sigma T4009) (maintaining 0.2% final DMSO concentration). For mouse LBAT, incubation mix was prepared by adding test inhibitor dilutions (3-fold serial dilution in DMSO, 10 points) in MEM-alpha (without FBS) containing 0.3 μM 3H-taurocholic acid and 25 μM cold taurocholic acid maintaining 0.2% final DMSO concentration).
50 μL of incubation mix containing test inhibitors was then added to the wells (in duplicate) and the plates were incubated for 20 minutes in a CO2 incubator at 37° C. After incubation, the reaction was stopped by keeping the plates on ice water mix for 2-3 minutes and then the incubation mix was aspirated completely from the wells. The wells were washed two times with 250 μL of chilled unlabelled 1 mM taurocholic acid dissolved in HEPES (Gibco 15630080)-buffered (10 mM) HBSS (Gibco 14175079) (pH 7.4). The plates were tapped against a paper towel after every wash to ensure maximum removal of blocking buffer.
100 μL of MicroScint-20 (PerkinElmer 6013621) was added to the wells and kept overnight at room temperature before reading the plates in TopCount NXT™ Microplate Scintillation and Luminescence Counter from PerkinElmer under 3H Test protocol (set at 120 seconds reading time per well, with normal plate orientation).
(§2) All test compounds were provided in powder form at room temperature. 10 mM DMSO stocks of the test compounds were prepared, aliquoted and stored at −20° C. From the 10 mM DMSO stock of the compounds, a 3-fold serial dilution in DMSO was prepared to get a total of 10 dilutions of the test compounds. 0.5 μL of this dilution in DMSO was added to 250 μL of FBS-free basal media containing 3H-taurocholic acid and cold taurocholic acid to prepare the incubation mixture.

[1] = Bidirectional permeability assay (Caco-2 cells); format: in vitro ADME; conditions: human; for Papp A→B at 120 min, 10 µM: Caco-2, pH 7.4, absorptive direction A2B; for Papp B→A at 120 min, 10 µM: Caco-2, pH 7.4, secretory direction B2A
Description: HepaRG-Based Assay Protocol

Human IBAT = target: T2, Human IBAT (Homo sapiens, UniProt Q12908); test: IBAT assay, 3H-taurocholic acid uptake in human IBAT-overexpressing cells; format: cell-based; conditions: read-out: hIBAT IC50
T2 construct: expressed in transfected cells; kept under Puromycin selection
T2 sequence (Q12908 1-348): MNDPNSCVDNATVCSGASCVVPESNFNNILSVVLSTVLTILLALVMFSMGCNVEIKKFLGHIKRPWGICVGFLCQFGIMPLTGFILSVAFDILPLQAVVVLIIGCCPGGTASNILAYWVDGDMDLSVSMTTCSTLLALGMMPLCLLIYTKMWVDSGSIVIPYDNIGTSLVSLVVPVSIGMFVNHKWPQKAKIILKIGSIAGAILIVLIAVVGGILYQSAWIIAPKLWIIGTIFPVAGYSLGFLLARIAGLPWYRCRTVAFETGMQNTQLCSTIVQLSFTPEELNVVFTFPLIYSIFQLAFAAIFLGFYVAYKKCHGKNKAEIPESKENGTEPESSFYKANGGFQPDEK
Procedure: as §1, with “10,000” for “20,000”, “IBAT-overexpressing” for “LBAT-overexpressing”, “200” for “100”, “Puromycin” for “Geneticin”, “A1113803) (10 μg/mL)” for “10131-027) (1 mg/mL)”, “48” for “24”
Test inhibitor dilutions (highest test concentration being 10 μM, 3-fold serial dilution, 10 points) prepared in DMSO (Sigma D2650) were added in incubation mix (maintaining 0.2% final DMSO concentration) containing 0.25 μM 3H-taurocholic acid (ARC ART-1368) and 5 μM of cold taurocholic acid (Sigma T4009). 50 μL of incubation mix containing test inhibitors was then added to the wells (in duplicate) and the plates were incubated for 20 minutes in a CO2 incubator at 37° C. After incubation, the reaction was stopped by keeping the plates on ice water mix for 2-3 minutes and then the incubation mix was aspirated completely from the wells. The wells were washed two times with 250 μL of chilled unlabelled 1 mM taurocholic acid dissolved in HEPES (Gibco 15630080)-buffered (10 mM) HBSS (Gibco 14175079) (pH 7.4). The plates were tapped against a paper towel after every wash to ensure maximum removal of blocking buffer.
100 μL of MicroScint-20 (PerkinElmer 6013621) was added to the wells and kept overnight at room temperature before reading the plates in TopCount NXT™ Microplate Scintillation and Luminescence Counter from PerkinElmer under 3H Test protocol (set at 120 seconds reading time per well).
as §2

[2] = Bioavailability study in rats; format: in vivo; conditions: male, Wistar, plasma; rat; 1 mg/kg intravenous, 10 mg/kg oral
Procedure: (§3) Male mice (C57BL/6 or CD1) or Wistar rats of 8-10 weeks old were used. For each test compound, two groups of 3 animals each were used. One group was administered a single intravenous dose of 1 mg/kg (vehicle 100% DMSO) through the tail vein and the other group was administered a single oral dose of 10 mg/kg through gavage needle. The group that was administered an oral dose was fasted overnight. Blood samples were collected after 0.083, 0.25, 0.5, 1, 2, 4, 6, 8 and 24 hours following intravenous administration, and after 0.25, 0.5, 1, 2, 4, 6, 8 and 24 hours following oral administration. Blood samples were taken from saphenous vein. 0.2% EDTA was used as the anticoagulant. The samples were analyzed by a discovery grade bioanalytical method developed for the estimation of test compound in plasma, using an LC-MS/MS system.

[3] = Bioavailability study in mice; format: in vivo; conditions: male, mouse, plasma, 1 mg/kg intravenous, 10 mg/kg oral
Procedure: as §3

urinary total bile acids = test: Urinary bile acid output in dogs; format: in vivo; conditions: male Beagle dogs, once daily for three days at 10 and 50 mg/kg
Procedure: Male Beagle dogs were used in the study. Animals were dosed with the compound of Example 2 once daily for three days at 10 and 50 mg/kg, respectively. Basal urine samples were collected before study start by cystocentesis. Urine samples were then collected at 2 h and 8 h post-dosing on Day 1 and Day 3. Urine bile acids and urine creatinine analyses were performed at a clinical chemistry lab.

Molecule `CCCC[C@]1(C)CN(c2ccccc2)c2cc(SC)c(O/C=C(\F)C(=O)O)cc2S(=O)(=O)C1` (single isomer, unassigned) [Example 2] has an IC50 (Human LBAT) of 17.4 nM, a Papp A→B at 120 min, 10 µM [1] of 3.6 ×10⁻⁶ cm/s and a Papp B→A at 120 min, 10 µM [1] of 6.6 ×10⁻⁶ cm/s. The IC50 (Human IBAT) was 22.7 nM, the bioavailability [2] was 34.5% and the bioavailability ([3]; C57BL/6 mice) was 15.7%. For the same molecule, the bioavailability ([3]; CD1 mice) was 32.1 to 55.7% and the “urinary total bile acids increase versus baseline” value (urinary total bile acids) was 5- to 10 fold.

`CCCC[C@@]1(C)CN(c2ccccc2)c2cc(SC)c(O/C=C(\F)C(=O)O)cc2S(=O)(=O)C1` (single isomer, unassigned) [Example 3] gave an IC50 (Human LBAT) of 9.2 nM, a Papp A→B at 120 min, 10 µM [1] of 3.6 ×10⁻⁶ cm/s and a Papp B→A at 120 min, 10 µM [1] of 9.3 ×10⁻⁶ cm/s. The IC50 (Human IBAT) was 735 nM.

Work on `CCCC1(C)CN(c2ccccc2)c2cc(SC)c(OC=CC(=O)O)cc2S(=O)(=O)C1` (single isomer, unassigned) [Example 5] yielded an IC50 (Human LBAT) of 32 nM.

`CCC[C@]1(C)CN(c2ccccc2)c2cc(SC)c(O/C=C/C(=O)O)cc2S(=O)(=O)C1` (single isomer, unassigned) [Example 6] gave an IC50 (Human LBAT) of 1050 nM and an IC50 (Human IBAT) of 678 nM.

In the case of `CCC[C@]1(C)CN(c2ccccc2)c2cc(SC)c(O/C=C(\F)C(=O)O)cc2S(=O)(=O)C1` (single isomer, unassigned) [Example 8], the IC50 (Human LBAT) is reported as 5.2 nM, the Papp A→B at 120 min, 10 µM [1] is reported as 3.6 ×10⁻⁶ cm/s and the Papp B→A at 120 min, 10 µM [1] is reported as 6.2 ×10⁻⁶ cm/s. It also gave an IC50 (Human IBAT) of 465 nM.

In the case of `CCC[C@@]1(C)CN(c2ccccc2)c2cc(SC)c(O/C=C(\F)C(=O)O)cc2S(=O)(=O)C1` (single isomer, unassigned) [Example 9], the IC50 (Human LBAT) is reported as 56 nM and the IC50 (Human IBAT) is reported as 186 nM.

Molecule `CCCCC1(C)CN(c2ccccc2)c2cc(SC)c(O/C=C(\F)C(=O)O)cc2S(=O)(=O)C1` (centres unmarked) [Example 1, (Z)-3-((3-buty-3-methyl-7-(methylthio)-1,1-dioxido-5-phenyl-2,3,4,5-tetrahydro-1,5-benzothiazepin-8-yl)oxy)-2-fluoroacrylic acid] has an IC50 (Human LBAT) of 14.4 nM and an IC50 (Human IBAT) of 23.7 nM.

For `CCCC1(C)CN(c2ccccc2)c2cc(SC)c(O/C=C/C(=O)O)cc2S(=O)(=O)C1` (centres unmarked) [Example 4, (E)-3-((3-methyl-7-(methylthio)-1,1-dioxido-5-phenyl-3-propy-2,3,4,5-tetrahydro-1,5-benzothiazepin-8-yl)oxy)acrylic acid], the IC50 (Human LBAT) was 66 nM and the IC50 (Human IBAT) was 564 nM.

Molecule `CCCC1(C)CN(c2ccccc2)c2cc(SC)c(O/C=C(\F)C(=O)O)cc2S(=O)(=O)C1` (centres unmarked) [Example 7, (Z)-2-fluoro-3-((3-methyl-7-(methylthio)-1,1-dioxido-5-phenyl-3-propy-2,3,4,5-tetrahydro-1,5-benzothiazepin-8-yl)oxy)acrylic acid] has an IC50 (Human LBAT) of 23 nM and an IC50 (Human IBAT) of 435 nM.

With `CCC1(C)CN(c2ccccc2)c2cc(SC)c(O/C=C(\F)C(=O)O)cc2S(=O)(=O)C1` (centres unmarked) [Example 10, (Z)-3-((3-ethyl-3-methyl-7-(methylthio)-1,1-dioxido-5-phenyl-2,3,4,5-tetrahydro-1,5-benzothiazepin-8-yl)oxy)-2-fluoroacrylic acid] the IC50 (Human LBAT) was 83 nM and the IC50 (Human IBAT) was 906 nM.

From patent publication US12060338B2, “Benzothia(di)azepine compounds and their use as bile acid modulators” (Albireo AB, priority 2019, dated 2024)
